In patent US20240398989A1, “METHODS AND COMPOSITIONS FOR DIAGNOSIS AND TREATMENT OF METABOLIC DISORDERS” (The Broad Institute, Inc., priority 2021, published 2024):
Entries after “also recorded” stand apart in the source; their conditions may differ.

Columns and labels:
[1] = system: visceral adipocytes; experiment: LipocyteProfiler of isoproterenol-treated vs DMSO-treated visceral adipocytes (AMSCs, day 14); assay type: cell-based, human; settings: for BODIPY-related Granularity (lipid droplet sizes): isoproterenol vs DMSO, across the full granularity size spectra
Protocol: For imaging, cells were seeded at 10K cells/well in 96-well plates (Cell Carrier, Perkin Elmer #6005550) and induced 4 days after seeding. For RNAseq, cells were seeded at 40K cells/well in 12-well dishes (Corning). […] Adipogenic differentiation was induced by changing culture medium to induction medium. […] Visceral-derived AMSCs were differentiated by further adding 2% FBS as well as 0.1 mM oleic and linoleic acid to the induction and differentiation media. For isoproterenol stimulation experiments, 1 μM isoproterenol was added to the differentiation media and cells treated overnight. Human primary AMSCs and PHH were plated in 96-well CellCarrier plates (Perkinelmer #6005550). AMSCs were differentiated for 14 days and high content imaging was performed at day 0, day 3, day 8 and day 14 of adipogenic differentiation. Primary human hepatocytes were stained after 48 h in culture, and 24h following treatment with oleic acid or metformin. On the respective day of the assay, cell culture media was removed and replaced by 0.5 μM Mitotracker staining solution (1 mM MitoTracker Deep Red stock (Invitrogen #M22426) diluted in culture media) to each well followed by 30 minutes incubation at 37° C.' protected from light. […] PFA was removed and cells were washed once with Hank's Balanced Salt Solution (1×), HBSS (Gibco #14025076). […] Finally, staining solution was removed and cells were washed three times with HBSS. Cells were imaged using a Opera Phenix High content screening system. […] Prior to processing, flat field illumination correction was performed using functions generated from the median intensity across each plate. Nuclei were identified using the DAPI stain and then expanded to identify whole cells using the Phalloidin/WGA and BODIPY stains. Regions of cytoplasm were then determined by removing the Nuclei from the Cell segmentations. Speckles of BODIPY staining were enhanced to assist in detection of small and large individual Lipid objects. For each object set measurements were collected representing size, shape, intensity, granularity, texture, colocalization and distance to neighbouring objects. After LipocyteProfiler (LP) feature extraction data was filtered by applying automated and manual quality control steps. […] Second, every field was assessed visually and fields that were corrupted by experimental induced technical artifacts were removed. Furthermore, blocklisted features (Way, Gregory (2019): Blocklist Features-Cell Profiler. figshare. […] After filtering data were normalised per plate using a robust scaling approach (Pedregosa et al. 2011) that subtracts the median from each variable and divides it by the interquartile range. Individual wells were aggregated for downstream analysis by cell depot and day of differentiation.

[2] = system: subcutaneous adipocytes; experiment: LipocyteProfiler of isoproterenol-treated vs DMSO-treated subcutaneous adipocytes (AMSCs, day 14); assay type: cell-based, human; settings: subcutaneous adipocytes/AMSCs at day 14, isoproterenol
Protocol: For imaging, cells were seeded at 10K cells/well in 96-well plates (Cell Carrier, Perkin Elmer #6005550) and induced 4 days after seeding. For RNAseq, cells were seeded at 40K cells/well in 12-well dishes (Corning). […] Adipogenic differentiation was induced by changing culture medium to induction medium. […] Visceral-derived AMSCs were differentiated by further adding 2% FBS as well as 0.1 mM oleic and linoleic acid to the induction and differentiation media. For isoproterenol stimulation experiments, 1 μM isoproterenol was added to the differentiation media and cells treated overnight. Human primary AMSCs and PHH were plated in 96-well CellCarrier plates (Perkinelmer #6005550). AMSCs were differentiated for 14 days and high content imaging was performed at day 0, day 3, day 8 and day 14 of adipogenic differentiation. Primary human hepatocytes were stained after 48 h in culture, and 24h following treatment with oleic acid or metformin. […] Regions of cytoplasm were then determined by removing the Nuclei from the Cell segmentations. […] Second, every field was assessed visually and fields that were corrupted by experimental induced technical artifacts were removed. […]

## CC(C)NCC(O)c1ccc(O)c(O)c1 (stereo not shown) [isoproterenol]
[1]; 24 hour isoproterenol (1 μM) vs DMSO-treated controls, day 14, p=0.0413
  Mitochondrial Intensity: increases
[1]; 24 hour isoproterenol vs DMSO-treated controls, p=0.0092
  mitochondrial Texture_Entropy: differences; also recorded: increases
[1]; 24 hour isoproterenol vs DMSO-treated controls, p=0.032
  BODIPY Texture Entropy: decrease
[1]; 24 hour isoproterenol vs DMSO-treated controls, p=0.041
  BODIPY MedianIntensity: decrease
[1]
  BODIPY-related Granularity (lipid droplet sizes): decreased
[1]; listed as Isoproterenol
  BODIPY-related Granularity (lipid droplet sizes): reduces
[2]
  effect on morphological profile: no effect
